Laboratory results from patent publication US20080207455A1, “5,6-Dialkyl-7-Aminoazolopyrimidines, Their Preparation and Their Use for Controlling Harmful Fungi, and Compositions Comprising These Compounds” (BASF AKTINGESELLSCHAFT, priority 2005, published 2008).

Columns and labels:
Plasmopara viticola = test: Activity against peronospora of grapevines caused by Plasmopara viticola (protective leaf spray, potted vines); assay type: in vivo; conditions: comparison with the closest prior art, concentration not restated in the table, untreated 100
Procedure: The mixture was then made up to 100 ml with water. This stock solution was diluted with the solvent/emulsifier/water mixture described to the concentration of active compounds stated below. Use example 1—Activity against peronospora of grapevines caused by Plasmopara viticola Leaves of potted vines were sprayed to runoff point with an aqueous suspension comprising 250 ppm of active compound. The next day, the undersides of the leaves were inoculated with an aqueous sporangia suspension of Plasmopara viticola. The vines were then initially placed in a water vapor-saturated chamber at 24° C. for 48 hours and then in a greenhouse at temperatures between 20 and 30° C. for five days. After this time, the plants were once more placed in a humid chamber for 16 hours to accelerate the eruption of sporangiophores. The extent of the development of the infection on the undersides of the leaves was then determined visually.

| Structure (SMILES) | melting point [°C] | Infection in % (Plasmopara viticola) [%] |
| --- | --- | --- |
| CCc1nc2nc(C)nn2c(N)c1CCC(C)CC(C)(C)C (stereo not shown) [Compound I-1, 5-ethyl-2-methyl-6-(3,5,5-trimethylhexyl)-[1,2,4]triazolo[1,5-a]pyrimidin-7-ylamine] | 180 to 181 |  |
| CCCCCCCCCCc1c(C)nc2cc(C)nn2c1N [Compound 28, reference compound] |  | 40 |
| CCCCCCCCCCc1c(CC)nc2cc(C)nn2c1N [Compound I-4] | 130 to 131 | 3 |
